{"source": "patent US9155804B2", "about": "“Contrast enhancement agents and method of use thereof” (General Electric Company, priority 2012, dated 2015)", "key": {"[1]": {"test": "Hydrodynamic size assay (dynamic light scattering)", "format": "physicochemical", "description": "The dilution was carried out to yield approximately 20,000 counts per second during the DLS measurement and the sample was allowed to equilibrate for 10 minutes in the instrument prior to data collection."}, "[2]": {"system": "MATBIII breast cancer cells", "test": "Dynamic contrast enhanced MR tumor imaging in MATBIII tumor bearing mice", "format": "in vivo, SCID mice", "settings": "DCE MR, dose 0.2 mmol/kg Gd, Fe, mammary MBIII rodent tumor model", "description": "Cell Preparation: MATBIII breast cells (available from ATCC®) were trypsinized using 1× trypsin-EDTA. The cells were washed using IX phosphate buffered saline (PBS) and aliquots of 2×10^6 cells were made in 1×PBS (100 uL). Prior to injection into the subject, 50 μL of basement membrane matrix (Matrigel®, BD Biosciences) was added to each aliquot.\nTumor Induction: All procedures involving animals were completed under protocols approved by the GE Global Research Institutional Animal Care and Use Committee. Female, 5-7 weeks old, SCID mice (Charles River Laboratories) were briefly anesthetized with 2% isoflurane and injected with 1×10^6 MATBIII breast cancer cells in 1×PBS (100 μL) and Matrigel SC to their left flank. The animals were monitored for 7 days post tumor cell injections at which point, precontrast agent MR images of the resulting lesions, typically 1 cm in diameter, were collected using the sequences described below."}}, "data": [{"molecule": "CNC[C@H](O)[C@@H](O)[C@H](O)[C@H](O)CO.CNC[C@H](O)[C@@H](O)[C@H](O)[C@H](O)CO.O=C([O-])CN(CCN(CC(=O)[O-])CC(=O)O)CCN(CC(=O)[O-])CC(=O)O.[Gd+3]", "note": "[Magnevist - Gd]", "values": [{"measurement": "Agent size (hydrodynamic diameter)", "setting": "[1]", "result": "Magnevist - Gd (1 nm)"}, {"measurement": "Tumor-to-muscle signal enhancement ratio (Tumor: Muscle), Average", "setting": "[2]", "result": 3.6}]}]}
